# Molecular target: T1, hTLR7 (Homo sapiens, UniProt Q9NYK1)
# T1 sequence (Q9NYK1 27-1049): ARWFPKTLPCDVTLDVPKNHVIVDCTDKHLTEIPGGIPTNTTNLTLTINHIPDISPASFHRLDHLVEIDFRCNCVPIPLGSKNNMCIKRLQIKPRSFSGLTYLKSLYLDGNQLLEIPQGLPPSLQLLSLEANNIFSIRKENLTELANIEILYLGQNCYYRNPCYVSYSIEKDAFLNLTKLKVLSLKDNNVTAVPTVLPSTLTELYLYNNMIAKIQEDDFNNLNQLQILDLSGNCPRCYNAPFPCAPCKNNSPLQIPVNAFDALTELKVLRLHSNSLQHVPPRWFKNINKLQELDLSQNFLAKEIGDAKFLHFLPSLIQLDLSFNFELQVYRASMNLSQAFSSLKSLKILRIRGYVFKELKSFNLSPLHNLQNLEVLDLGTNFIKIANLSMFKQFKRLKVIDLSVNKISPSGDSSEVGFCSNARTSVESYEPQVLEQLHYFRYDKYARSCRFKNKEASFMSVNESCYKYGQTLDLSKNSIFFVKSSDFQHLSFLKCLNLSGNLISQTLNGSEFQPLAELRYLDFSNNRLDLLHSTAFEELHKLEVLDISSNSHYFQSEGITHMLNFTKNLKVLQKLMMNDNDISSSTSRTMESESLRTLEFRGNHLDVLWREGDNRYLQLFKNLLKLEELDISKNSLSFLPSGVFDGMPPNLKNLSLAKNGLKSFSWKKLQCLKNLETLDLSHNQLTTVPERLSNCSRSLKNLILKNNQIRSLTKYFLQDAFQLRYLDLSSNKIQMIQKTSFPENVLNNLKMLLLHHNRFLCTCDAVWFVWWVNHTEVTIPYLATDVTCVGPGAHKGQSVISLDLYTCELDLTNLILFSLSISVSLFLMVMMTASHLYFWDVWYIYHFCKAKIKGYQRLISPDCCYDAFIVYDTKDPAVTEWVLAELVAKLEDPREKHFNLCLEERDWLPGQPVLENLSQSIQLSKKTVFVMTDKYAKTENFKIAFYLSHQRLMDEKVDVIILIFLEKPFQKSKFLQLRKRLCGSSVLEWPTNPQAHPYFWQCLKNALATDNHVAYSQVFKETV
# Test: HEK293-Blue-hTLR-7 cells assay (SEAP reporter, R848 stimulation)
# Format: cell-based
# Settings: HEK293-Blue-hTLR7 cells, R848, 20 hrs; 0.003 is the lowest tested concentration; read-out: HEK/hTLR7 IC50
# Experimental: The following tests were carried out in order to determine the activity of the compounds of formula (I) or (Ia) in HEK293-Blue-hTLR-7/8/9 cells assay.
# HEK293-Blue-hTLR-7 cells assay:
# A stable HEK293-Blue-hTLR-7 cell line was purchased from InvivoGen (Cat.#: hkb-htlr7, San Diego, California, USA). These cells were originally designed for studying the stimulation of human TLR7 by monitoring the activation of NF-κB. A SEAP (secreted embryonic alkaline phosphatase) reporter gene was placed under the control of the IFN-β minimal promoter fused to five NF-κB and AP-1-binding sites. The SEAP was induced by activating NF-κB and AP-1 via stimulating HEK-Blue hTLR7 cells with TLR7 ligands. Therefore the reporter expression was declined by TLR7 antagonist under the stimulation of a ligand, such as R848 (Resiquimod), for incubation of 20 hrs. The cell culture supernatant SEAP reporter activity was determined using QUANTI-Blue™ kit (Cat.#: rep-qb1, Invivogen, San Diego, Ca, USA) at a wavelength of 640 nm, a detection medium that turns purple or blue in the presence of alkaline phosphatase.
# HEK293-Blue-hTLR7 cells were incubated at a density of 250,000∼450,000 cells/mL in a volume of 170 µL in a 96-well plate in Dulbecco's Modified Eagle's medium (DMEM) containing 4.5 g/L glucose, 50 U/mL penicillin, […], […], 2 mM L-glutamine, 10% (v/v) heat-inactivated fetal bovine serum with addition of 20 µL test compound in a serial dilution in the presence of final DMSO at 1% and 10 µL of 20uM R848 in above DMEM, perform incubation under 37 °C in a CO2 incubator for 20 hrs. Then 20 µL of the supernatant from each well was incubated with 180 µL Quanti-blue substrate solution at 37 °C for 2 hrs and the absorbance was read at 620∼655 nm using a spectrophotometer. The signalling pathway that TLR7 activation leads to downstream NF-κB activation has been widely accepted, and therefore similar reporter assay was modified for evaluating TLR7 antagonist.
row,IC50 [nM],Compound
1,39,"C[C@@H]1CN(c2ccc(Cl)c3ncccc23)C[C@H](CN2CCc3cc(N4CCNCC4)ccc3C2)O1 [Example 32, (2R,6S)-4-(8-chloro-5-quinolyl)-2-methyl-6-[(6-piperazin-1-yl-3,4-dihydro-1H-isoquinolin-2-yl)methyl]morpholine]"
2,9,"C[C@@H]1CN(c2ccc(Cl)c3nccnc23)C[C@H](CN2Cc3ccc(N4CCNCC4)cc3C2)O1 [Example 33, (2R,6S)-4-(8-chloroquinoxalin-5-yl)-2-methyl-6-[(5-piperazin-1-ylisoindolin-2-yl)methyl]morpholine]"
3,23,"C[C@@H]1CN(c2ccc(Cl)c3nccnc23)C[C@H](CN2CCc3cc(N4CCNCC4)ccc3C2)O1 [Example 34, (2R,6S)-4-(8-chloroquinoxalin-5-yl)-2-methyl-6-[(6-piperazin-1-yl-3,4-dihydro-1H-isoquinolin-2-yl)methyl]morpholine]"
4,41,"C[C@@H]1CN(c2ccc(C#N)c3nccnc23)C[C@H](CN2Cc3ccc(N4CCN(C5CC5)CC4)cc3C2)O1 [Example 35, 8-[(2S,6R)-2-[[5-(4-cyclopropylpiperazin-1-yl)isoindolin-2-yl]methyl]-6-methyl-morpholin-4-yl]quinoxaline-5-carbonitrile]"
5,10,"CC1CN(c2ccc3c(c2)CN(C[C@H]2CN(c4ccc(C#N)c5nccnc45)C[C@@H](C)O2)C3)CCN1 (stereo partly drawn) [Example 36, 8-[(2R,6S)-2-methyl-6-[[5-(3-methylpiperazin-1-yl)isoindolin-2-yl]methyl]morpholin-4-yl]quinoxaline-5-carbonitrile]"
6,50,"COCCN1CCN(c2ccc3c(c2)CN(C[C@H]2CN(c4ccc(C#N)c5nccnc45)C[C@@H](C)O2)C3)CC1 [Example 37, 8-[(2S,6R)-2-[[5-[4-(2-methoxyethyl)piperazin-1-yl]isoindolin-2-yl]methyl]-6-methyl-morpholin-4-yl]quinoxaline-5-carbonitrile]"
7,23,"C[C@@H]1CN(c2ccc(C#N)c3nccnc23)C[C@H](CN2Cc3ccc(N4CCNC5(CC5)C4)cc3C2)O1 [Example 38, 8-[(2S,6R)-2-[[5-(4,7-diazaspiro[2.5]octan-7-yl)isoindolin-2-yl]methyl]-6-methyl-morpholin-4-yl]quinoxaline-5-carbonitrile]"
8,33,"C[C@@H]1CN(c2ccc(C#N)c3nccnc23)C[C@H](CN2Cc3ccc(N4CCN5CCCCC5C4)cc3C2)O1 (stereo partly drawn) [Example 40, 8-[(2S,6R)-2-[[5-(1,3,4,6,7,8,9,9a-octahydropyrido[1,2-a]pyrazin-2-yl)isoindolin-2-yl]methyl]-6-methyl-morpholin-4-yl]quinoxaline-5-carbonitrile]"
9,84,"C[C@@H]1CN(c2ccc(C#N)c3ncccc23)C[C@H](CN2Cc3ccc(N4CC5(CNC5)C4)cc3C2)O1 [Example 47, 5-[(2S,6R)-2-[[5-(2,6-diazaspiro[3.3]heptan-2-yl)isoindolin-2-yl]methyl]-6-methyl-morpholin-4-yl]quinoline-8-carbonitrile]"
10,238,"CC1c2ccc(N3CCNCC3)cc2CN1C[C@H]1CN(c2ccc(C#N)c3ncccc23)C[C@@H](C)O1 (stereo partly drawn) [Example 48, 5-[(2R,6S)-2-methyl-6-[(1-methyl-5-piperazin-1-yl-isoindolin-2-yl)methyl]morpholin-4-yl]quinoline-8-carbonitrile]"
11,85,"CCOC(=O)C1CNCCN1c1ccc2c(c1)CN(C[C@H]1CN(c3ccc(C#N)c4ncccc34)C[C@@H](C)O1)C2 (stereo partly drawn) [Example 50, Ethyl 1-[2-[[(2S,6R)-4-(8-cyano-5-quinolyl)-6-methyl-morpholin-2-yl]methyl]isoindolin-5-yl] piperazine-2-carboxylate]"
12,18,"C[C@@H]1CN(c2ccc(C#N)c3ncccc23)C[C@H](CN2Cc3cc(N4CCNCC4)cc(F)c3C2)O1 [Example 59, 5-[(2S,6R)-2-[(4-fluoro-6-piperazin-1-yl-isoindolin-2-yl)methyl]-6-methyl-morpholin-4-yl]quinoline-8-carbonitrile]"
13,11,"C[C@@H]1CN(c2ccc(C#N)c3nccnc23)C[C@H](CN2Cc3cnc(N4CCNCC4)cc3C2)O1 [Example 60, 8-[(2R,6S)-2-methyl-6-[(6-piperazin-1-yl-1,3-dihydropyrrolo[3,4-c]pyridin-2-yl)methyl]morpholin-4-yl]quinoxaline-5-carbonitrile]"
14,23,"C[C@@H]1CN(c2ccc(C#N)c3ncccc23)C[C@H](CN2Cc3cnc(N4CCNCC4)cc3C2)O1 [Example 61, 5-[(2R,6S)-2-methyl-6-[(6-piperazin-1-yl-1,3-dihydropyrrolo[3,4-c]pyridin-2-yl)methyl]morpholin-4-yl]quinoline-8-carbonitrile]"
15,13,"C[C@@H]1CN(c2ccc(C#N)c3ncccc23)C[C@H](CN2Cc3cnc(N4CCNCC4)nc3C2)O1 [Example 63, 5-[(2R,6S)-2-methyl-6-[(2-piperazin-1-yl-5,7-dihydropyrrolo[3,4-d]pyrimidin-6-yl)methyl]morpholin-4-yl]quinoline-8-carbonitrile]"
16,40,"C[C@@H]1CN(c2ccc(C#N)c3ncccc23)C[C@H](CN2Cc3ccc(N4CCN[C@@H](C)C4)cc3C2)O1 [Example 64, 5-[(2R,6S)-2-methyl-6-[[5-[(3S)-3-methylpiperazin-1-yl]isoindolin-2-yl]methyl]morpholin-4-yl]quinoline-8-carbonitrile]"

row,Compound,IC50 [nM]
1,"C[C@@H]1CN(c2ccc(C#N)c3nccnc23)C[C@H](CN2Cc3ccc(N4C5CCC4CNC5)cc3C2)O1 [Example 41, 8-[(2S,6R)-2-[[5-(3,8-diazabicyclo[3.2.1]octan-8-yl)isoindolin-2-yl]methyl]-6-methyl-morpholin-4-yl]quinoxaline-5-carbonitrile]",59
2,"C[C@@H]1CN(c2ccc(C#N)c3ncccc23)C[C@H](CN2Cc3ccc(N4CC5CCC(C4)N5)cc3C2)O1 [Example 42, 5-[(2S,6R)-2-[[5-(3,8-diazabicyclo[3.2.1]octan-3-yl)isoindolin-2-yl]methyl]-6-methyl-morpholin-4-yl]quinoline-8-carbonitrile]",62
3,"C[C@@H]1CN(c2ccc(C#N)c3ncccc23)C[C@H](CN2Cc3ccc(N4C5CCC4CNC5)cc3C2)O1 [Example 43, 5-[(2S,6R)-2-[[5-(3,8-diazabicyclo[3.2.1]octan-8-yl)isoindolin-2-yl]methyl]-6-methyl-morpholin-4-yl]quinoline-8-carbonitrile]",60
4,"C[C@@H]1CN(c2ccc(C#N)c3ncccc23)C[C@H](CN2Cc3ccc(N4C5CNCC4COC5)cc3C2)O1 [Example 46, 5-[(2R,6S)-2-methyl-6-[[5-(3-oxa-7,9-diazabicyclo[3.3.1]nonan-9-yl)isoindolin-2-yl]methyl]morpholin-4-yl]quinoline-8-carbonitrile]",74
5,"C[C@@H]1CN(c2ccc(C#N)c3nccnc23)C[C@H](CN2Cc3ccc(N4CC5COCC(C4)N5)cc3C2)O1 [Example 49, 8-[(2R,6S)-2-methyl-6-[[5-(3-oxa-7,9-diazabicyclo[3.3.1]nonan-7-yl)isoindolin-2-yl]methyl]morpholin-4-yl]quinoxaline-5-carbonitrile]",50
